The text below walks through data of publication PMC5963640 (Journal of Ocular Pharmacology and Therapeutics, 2018).

Like-named read-outs stand apart in the source and are kept apart here.

Data set [1] deals with primary porcine TM (PTM) cells. The data set can be described thus: Disruption of actin stress fibers, high-content screening. The note with it: for IC50: Sus scrofa, 6 h incubation, read-out: PTM IC50 (disruption of actin stress fibers). The class given is cell-based.
For data set [2], the system named is transformed human TM (HTM) cells (TM-1). Nature of the data set: Disruption of focal adhesions, high-content screening. The class given is cell-based. The note with it: 6 h incubation, read-out: HTM IC50 (disruption of focal adhesions).
Data set [3] can be described thus: Absorption and distribution of radioactivity after single topical ocular dose. The note with it: for AUClast / Cmax / T1/2,e / Tmax: 14C-netarsudil 0.02% single topical ocular dose. The class given is in vivo, Dutch Belted rabbits. As for the experimental part:
A single topical ocular dose of 0.02% ^14C-netarsudil mesylate (35 μL drop) was administered to both eyes of 3 male Dutch Belted rabbits in each of 7 groups. At 0.25, 0.5, 1, 4, 8, 24, and 48 h postdose, the following samples were harvested from each group: whole blood, derived plasma, AH, vitreous humor, cornea, conjunctiva, lens, iris/ciliary body, retina-choroid-plexus, liver, and kidneys. All samples were assayed for total radioactivity. A study of the same design was conducted for AR-12286, using a single topical ocular dose of 0.5% ^3H-AR-12286 (35 μL drop).

Data set [4] relates to normotensive Formosan Rock monkeys. The data set can be described thus: Ocular hypotensive activity (IOP) in monkeys. As to conditions: 0.5%, Day 3.
Data set [5] has as its target T1, calcium/calmodulin-dependent protein kinase II Alpha (CAMK2A) (Homo sapiens, UniProt Q9UQM7).
T1 construct: purchased Invitrogen/Life Technologies
Nature of the data set: Kinase-Glo luminescent protein kinase assay, CAMK2A. The class given is biochemical. As to conditions: average of ≥3 replicate experiments; read-out: CAM2A Ki. In general terms: Kinase-Glo measures the ATP left after a reaction by luminescence.

In data set [6] the target is T2, protein kinase C-theta (PKC-theta) (Homo sapiens, UniProt Q04759).
T2 construct: purchased Invitrogen/Life Technologies
Nature of the data set: Kinase-Glo luminescent protein kinase assay, PKC-theta. It counts as biochemical. As to conditions: average of ≥3 replicate experiments; read-out: PKCT Ki.

Data set [7] deals with T3, myotonic dystrophy kinase-related CDC42-binding kinase alpha (MRCKA) (Homo sapiens, UniProt Q5VT25).
T3 construct: purchased Upstate
Nature of the data set: Kinase-Glo luminescent protein kinase assay, MRCKA. It counts as biochemical. The note with it: average of ≥3 replicate experiments.

Data set [8] has as its system normotensive Dutch Belted rabbits. The data set can be described thus: Ocular hypotensive activity (IOP) in rabbits.
In data set [9] the target is norepinephrine transporter (NET) (Homo sapiens, UniProt P23975). Nature of the data set: NET inhibitory activity (data not shown).
Another data set concerns the target T4, ROCK1 (Homo sapiens, UniProt Q13464).
T4 construct: purchased Invitrogen/Life Technologies
Nature of the data set: Kinase-Glo luminescent protein kinase assay, ROCK1. As to conditions: ROCK1 and ROCK2. The class given is biochemical.

A further data set has as its system human donor eyes. As to conditions: perfused for 3 h; cited from earlier work.
The next data set concerns mouse eyes. As to conditions: eyes perfused ∼1 h, cited from earlier work.
Where [10] appears, read: Aqueous humor, L eye, radioactivity.
The mark [11] stands for this setting: Aqueous humor, R eye, radioactivity.
Where [12] appears, read: Conjuctiva, L eye, radioactivity.
[13] abbreviates: Conjuctiva, R eye, radioactivity.
The mark [14] stands for this setting: Iris-ciliary body, L eye, radioactivity.
Where [15] appears, read: Iris-ciliary body, R eye, radioactivity.
[16] abbreviates: Retina-choroid-plexus, L eye, radioactivity.
[17] abbreviates: Retina-choroid-plexus, R eye, radioactivity.
[18] abbreviates: Vitreous humor, L eye, radioactivity.
Setting [19] is: Vitreous humor, R eye, radioactivity.
The mark [20] stands for this setting: male, Dutch Belted, rabbit, in vivo, topical or ocular.

T1 sequence (Q9UQM7 whole entry): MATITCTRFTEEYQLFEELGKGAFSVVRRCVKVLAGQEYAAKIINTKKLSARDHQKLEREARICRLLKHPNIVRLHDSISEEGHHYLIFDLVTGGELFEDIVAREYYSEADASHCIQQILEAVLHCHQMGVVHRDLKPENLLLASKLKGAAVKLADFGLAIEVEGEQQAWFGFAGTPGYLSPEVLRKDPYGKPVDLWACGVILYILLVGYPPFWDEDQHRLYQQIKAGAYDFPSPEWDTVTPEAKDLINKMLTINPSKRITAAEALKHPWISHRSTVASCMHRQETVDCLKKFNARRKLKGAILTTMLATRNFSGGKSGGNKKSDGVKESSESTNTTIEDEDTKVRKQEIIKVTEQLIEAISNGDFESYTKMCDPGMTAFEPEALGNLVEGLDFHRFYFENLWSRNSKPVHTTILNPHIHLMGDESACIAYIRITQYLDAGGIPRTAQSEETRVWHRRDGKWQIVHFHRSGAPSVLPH
T3 sequence (Q5VT25 whole entry): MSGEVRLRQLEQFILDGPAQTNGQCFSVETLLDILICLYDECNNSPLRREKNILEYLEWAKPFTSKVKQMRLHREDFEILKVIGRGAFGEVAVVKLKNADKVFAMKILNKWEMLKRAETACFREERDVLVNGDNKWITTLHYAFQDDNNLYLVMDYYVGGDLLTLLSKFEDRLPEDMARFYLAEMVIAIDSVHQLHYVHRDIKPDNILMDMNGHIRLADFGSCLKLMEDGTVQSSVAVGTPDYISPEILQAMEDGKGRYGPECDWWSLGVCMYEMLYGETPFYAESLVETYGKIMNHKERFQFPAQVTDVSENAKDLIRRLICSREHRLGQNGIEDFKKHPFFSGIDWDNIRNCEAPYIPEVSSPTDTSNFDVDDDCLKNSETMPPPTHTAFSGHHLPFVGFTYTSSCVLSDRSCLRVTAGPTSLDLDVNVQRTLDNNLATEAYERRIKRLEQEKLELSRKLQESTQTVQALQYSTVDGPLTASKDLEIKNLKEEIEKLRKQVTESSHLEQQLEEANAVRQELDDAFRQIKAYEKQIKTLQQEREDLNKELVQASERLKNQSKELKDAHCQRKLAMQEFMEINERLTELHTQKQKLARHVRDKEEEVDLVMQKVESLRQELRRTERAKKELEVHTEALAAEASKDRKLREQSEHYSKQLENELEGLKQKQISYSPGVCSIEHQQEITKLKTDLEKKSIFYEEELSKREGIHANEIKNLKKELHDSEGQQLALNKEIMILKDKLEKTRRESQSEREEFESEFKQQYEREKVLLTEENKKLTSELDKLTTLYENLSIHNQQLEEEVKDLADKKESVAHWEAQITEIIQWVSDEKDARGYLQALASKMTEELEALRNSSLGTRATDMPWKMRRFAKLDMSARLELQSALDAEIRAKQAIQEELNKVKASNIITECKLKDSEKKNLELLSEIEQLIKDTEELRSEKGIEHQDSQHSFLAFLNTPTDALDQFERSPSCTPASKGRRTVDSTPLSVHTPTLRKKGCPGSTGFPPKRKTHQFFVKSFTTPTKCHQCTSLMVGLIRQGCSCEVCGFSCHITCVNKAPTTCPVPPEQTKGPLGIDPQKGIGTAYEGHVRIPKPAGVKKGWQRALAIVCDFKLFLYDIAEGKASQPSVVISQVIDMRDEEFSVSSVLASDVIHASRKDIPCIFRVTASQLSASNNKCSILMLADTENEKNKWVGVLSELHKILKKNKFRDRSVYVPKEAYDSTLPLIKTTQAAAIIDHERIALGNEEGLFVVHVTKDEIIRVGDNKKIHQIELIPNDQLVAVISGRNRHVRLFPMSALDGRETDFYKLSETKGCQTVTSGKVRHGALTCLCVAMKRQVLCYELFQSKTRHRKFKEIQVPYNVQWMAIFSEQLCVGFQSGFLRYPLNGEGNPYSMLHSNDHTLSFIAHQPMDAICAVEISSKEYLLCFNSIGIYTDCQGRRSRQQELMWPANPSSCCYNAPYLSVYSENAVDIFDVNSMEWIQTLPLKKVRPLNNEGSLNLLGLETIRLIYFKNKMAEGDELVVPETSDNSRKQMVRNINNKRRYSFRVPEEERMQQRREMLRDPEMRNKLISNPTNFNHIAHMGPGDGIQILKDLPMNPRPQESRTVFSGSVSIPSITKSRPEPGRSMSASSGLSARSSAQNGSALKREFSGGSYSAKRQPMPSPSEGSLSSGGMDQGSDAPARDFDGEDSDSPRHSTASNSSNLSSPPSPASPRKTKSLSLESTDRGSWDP
T2 sequence (Q04759 whole entry): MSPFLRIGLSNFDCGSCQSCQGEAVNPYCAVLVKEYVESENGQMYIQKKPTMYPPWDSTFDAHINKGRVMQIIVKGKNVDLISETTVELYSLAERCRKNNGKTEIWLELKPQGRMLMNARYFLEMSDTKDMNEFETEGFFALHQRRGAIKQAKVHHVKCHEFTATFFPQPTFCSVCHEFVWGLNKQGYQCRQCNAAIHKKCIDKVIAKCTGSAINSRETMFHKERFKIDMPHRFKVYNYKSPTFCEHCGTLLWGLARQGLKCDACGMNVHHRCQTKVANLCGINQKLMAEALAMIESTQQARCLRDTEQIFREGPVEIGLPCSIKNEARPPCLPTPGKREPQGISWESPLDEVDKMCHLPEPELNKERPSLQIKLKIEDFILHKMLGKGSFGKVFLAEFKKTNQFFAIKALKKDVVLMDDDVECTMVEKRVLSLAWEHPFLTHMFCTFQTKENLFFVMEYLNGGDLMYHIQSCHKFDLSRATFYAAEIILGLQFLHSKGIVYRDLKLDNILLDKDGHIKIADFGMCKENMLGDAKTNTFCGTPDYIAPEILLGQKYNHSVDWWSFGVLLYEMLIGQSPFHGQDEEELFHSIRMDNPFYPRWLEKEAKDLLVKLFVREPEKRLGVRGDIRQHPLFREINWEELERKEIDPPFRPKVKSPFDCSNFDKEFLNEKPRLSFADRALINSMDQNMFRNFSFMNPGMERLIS
T4 sequence (Q13464 whole entry): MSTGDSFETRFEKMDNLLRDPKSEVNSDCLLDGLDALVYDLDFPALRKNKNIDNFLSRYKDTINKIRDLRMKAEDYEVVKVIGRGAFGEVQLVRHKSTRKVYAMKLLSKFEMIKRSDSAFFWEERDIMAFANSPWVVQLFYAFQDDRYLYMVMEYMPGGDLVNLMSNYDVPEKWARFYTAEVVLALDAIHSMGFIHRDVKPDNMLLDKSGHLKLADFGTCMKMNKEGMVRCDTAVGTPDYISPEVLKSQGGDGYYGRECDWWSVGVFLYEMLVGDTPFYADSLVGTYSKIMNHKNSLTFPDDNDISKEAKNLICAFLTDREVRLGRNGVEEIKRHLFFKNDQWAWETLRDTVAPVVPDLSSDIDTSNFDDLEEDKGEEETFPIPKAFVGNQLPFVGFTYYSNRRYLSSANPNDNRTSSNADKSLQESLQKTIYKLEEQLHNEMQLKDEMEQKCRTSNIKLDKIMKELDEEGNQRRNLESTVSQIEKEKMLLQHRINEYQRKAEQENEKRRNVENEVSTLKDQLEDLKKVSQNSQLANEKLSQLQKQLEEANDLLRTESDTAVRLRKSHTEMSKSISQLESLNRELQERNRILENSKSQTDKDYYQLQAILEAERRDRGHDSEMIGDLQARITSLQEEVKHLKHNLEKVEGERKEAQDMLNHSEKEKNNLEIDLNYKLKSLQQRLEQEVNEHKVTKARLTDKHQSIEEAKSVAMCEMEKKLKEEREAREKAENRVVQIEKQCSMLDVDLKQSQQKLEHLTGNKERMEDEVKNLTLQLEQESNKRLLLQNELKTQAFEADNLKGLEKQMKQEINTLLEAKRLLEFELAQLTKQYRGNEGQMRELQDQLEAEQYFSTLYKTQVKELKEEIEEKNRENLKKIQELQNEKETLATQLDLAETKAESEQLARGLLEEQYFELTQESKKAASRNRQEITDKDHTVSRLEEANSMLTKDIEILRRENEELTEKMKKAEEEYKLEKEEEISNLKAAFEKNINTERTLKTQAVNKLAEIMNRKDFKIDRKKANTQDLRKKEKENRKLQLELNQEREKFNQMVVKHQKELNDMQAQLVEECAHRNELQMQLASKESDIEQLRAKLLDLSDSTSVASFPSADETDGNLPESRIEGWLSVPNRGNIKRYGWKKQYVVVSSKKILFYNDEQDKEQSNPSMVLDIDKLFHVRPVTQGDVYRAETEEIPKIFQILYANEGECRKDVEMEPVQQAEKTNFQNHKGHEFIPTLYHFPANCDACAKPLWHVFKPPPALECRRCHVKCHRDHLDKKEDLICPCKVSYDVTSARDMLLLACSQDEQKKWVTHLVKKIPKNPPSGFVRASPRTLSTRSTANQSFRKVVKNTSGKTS
Chain of norepinephrine transporter (NET) (P23975 whole entry, species assumed): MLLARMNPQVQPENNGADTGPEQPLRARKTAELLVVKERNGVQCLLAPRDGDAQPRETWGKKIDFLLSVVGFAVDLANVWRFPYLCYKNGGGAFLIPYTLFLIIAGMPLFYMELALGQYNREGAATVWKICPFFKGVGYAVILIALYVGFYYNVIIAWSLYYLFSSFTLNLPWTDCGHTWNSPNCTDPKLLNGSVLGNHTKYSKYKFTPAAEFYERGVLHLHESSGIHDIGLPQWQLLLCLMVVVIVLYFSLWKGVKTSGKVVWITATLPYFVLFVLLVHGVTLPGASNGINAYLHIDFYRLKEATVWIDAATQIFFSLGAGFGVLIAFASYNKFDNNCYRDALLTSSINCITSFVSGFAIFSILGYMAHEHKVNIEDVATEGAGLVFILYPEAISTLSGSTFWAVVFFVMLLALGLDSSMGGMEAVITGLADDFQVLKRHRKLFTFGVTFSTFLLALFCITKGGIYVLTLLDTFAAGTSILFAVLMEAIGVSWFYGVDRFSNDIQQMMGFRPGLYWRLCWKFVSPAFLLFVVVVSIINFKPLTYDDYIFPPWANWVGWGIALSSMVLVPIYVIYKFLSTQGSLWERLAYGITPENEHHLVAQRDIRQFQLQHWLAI

Turning to `CC(N)[C@H]1CC[C@H](C(=O)Nc2ccncc2)CC1` (stereo partly drawn) [Y27632, reference compound], the results for the IC50 in data set [1] and in [2] were 9970 nM and 1740 nM, respectively.
For `Cc1ccc(C(=O)OCc2ccc([C@@H]([14CH2]N)C(=O)Nc3ccc4cnccc4c3)cc2)c(C)c1` [^14C-Netarsudil], the AUClast in data set [3] (setting [10]) is 510 ng·eq·h/g; in data set [3] (setting [11]), 613 ng·eq·h/g; in data set [3] (Blood, radioactivity), 15 ng·eq·h/g; in [3] (setting [12]) it was 9,525 ng·eq·h/g; in data set [3] (setting [13]) it was 12,390 ng·eq·h/g; in data set [3] (Cornea, L eye, radioactivity) it was 63,387 ng·eq·h/g. For the same compound, the AUClast is 69,605 ng·eq·h/g in [3] (Cornea, R eye, radioactivity); 10,845 ng·eq·h/g in data set [3] (setting [14]); 11,555 ng·eq·h/g in data set [3] (setting [15]); 298 ng·eq·h/g in [3] (Kidney, radioactivity); 33 ng·eq·h/g in data set [3] (Lens, L eye, radioactivity); 37 ng·eq·h/g in [3] (Lens, R eye, radioactivity). Besides, the AUClast in data set [3] (Liver, radioactivity) was 88 ng·eq·h/g; in data set [3] (Plasma, radioactivity), 24 ng·eq·h/g; in data set [3] (setting [16]) it was 1,390 ng·eq·h/g; in data set [3] (setting [17]), 1,298 ng·eq·h/g; in data set [3] (setting [18]), 51 ng·eq·h/g; in [3] (setting [19]), 51 ng·eq·h/g. For the same compound, the Cmax in [3] (setting [10]) is given as 16 ng·eq/g; in data set [3] (setting [11]), 23 ng·eq/g; in data set [3] (Blood, radioactivity), 1 ng·eq/g; in [3] (setting [12]) it was 2,442 ng·eq/g; in data set [3] (setting [13]) it was 3,292 ng·eq/g; in [3] (Cornea, L eye, radioactivity), 3,666 ng·eq/g. Further, the Cmax in data set [3] (Cornea, R eye, radioactivity) is recorded as 3,972 ng·eq/g; in data set [3] (setting [14]) it was 955 ng·eq/g; in data set [3] (setting [15]), 416 ng·eq/g; in [3] (Kidney, radioactivity), 19 ng·eq/g; in data set [3] (Lens, L eye, radioactivity), 2 ng·eq/g; in [3] (Lens, R eye, radioactivity), 2 ng·eq/g. Moreover, the Cmax in data set [3] (Liver, radioactivity) was determined as 6 ng·eq/g; in data set [3] (Plasma, radioactivity), 1 ng·eq/g; in [3] (setting [16]), 80 ng·eq/g; in [3] (setting [17]), 50 ng·eq/g; in data set [3] (setting [18]) it was 7 ng·eq/g; in data set [3] (setting [19]), 4 ng·eq/g. The “T1/2,e” value is on record as 17 h in data set [3] (setting [10]); 16 h in data set [3] (setting [11]); 27 h in [3] (Blood, radioactivity); 13 h in data set [3] (setting [12]); 17 h in [3] (setting [13]); 14 h in data set [3] (Cornea, L eye, radioactivity). In addition, the “T1/2,e” value stood at 13 h in data set [3] (Cornea, R eye, radioactivity); 112 h in [3] (setting [15]); 16 h in data set [3] (Kidney, radioactivity); 99 h in [3] (Lens, L eye, radioactivity); 83 h in data set [3] (Lens, R eye, radioactivity); 13 h in data set [3] (Liver, radioactivity). Also, the “T1/2,e” value came out at 16 h in [3] (Plasma, radioactivity); 204 h in data set [3] (setting [16]); 68 h in [3] (setting [17]); 12 h in data set [3] (setting [18]); 15 h in data set [3] (setting [19]). Further, the time of peak concentration (Tmax) (as a rule, the time at which the peak concentration occurs) was found to be 8 h in [3] (setting [10]); 8 h in [3] (setting [11]); 0.25 h in data set [3] (Blood, radioactivity); 0.25 h in [3] (setting [12]); 0.25 h in [3] (setting [13]); 0.5 h in data set [3] (Cornea, L eye, radioactivity). The Tmax in [3] (Cornea, R eye, radioactivity) is on record as 0.25 h; in data set [3] (setting [14]), 0.25 h; in [3] (setting [15]), 8 h; in data set [3] (Kidney, radioactivity) it was 1 h; in [3] (Lens, L eye, radioactivity), 0.25 h; in [3] (Lens, R eye, radioactivity) it was 0.25 h. The Tmax in data set [3] (Liver, radioactivity) is 1 h; in data set [3] (Plasma, radioactivity), 0.5 h; in data set [3] (setting [16]), 0.25 h; in data set [3] (setting [17]), 0.5 h; in data set [3] (setting [18]), 0.25 h; in [3] (setting [19]), 0.25 h. Also, the “Tmax in AH” value in data set [3] (netarsudil 0.02% single topical ocular dose, radioactivity) worked out at 8 h.
On to `CN(C)C(C(=O)Nc1ccc2c(=O)[nH]ccc2c1)c1ccsc1` (stereo not drawn) [AR-12286], for which the IOP reduction in [4] (4 h after dosing) was 5.6 ± 0.3 mmHg; in [4] (24 h after dosing), 3.9 ± 0.3 mmHg; in [8] (0.5%, 8 h after dosing on Day 3), 2.9 ± 0.2 mmHg. Moreover, the “T1/2,e values” in [3] (setting [20]) lay within 9 to 41 h. Besides, the “Tmax in AH” value in [3] (setting [20]) was 0.25 to 0.5 h. Also, the “terminal elimination half-life (T1/2,e) in AH” value in data set [3] (setting [20]) fell in the range of 9 to 11 h. For the same compound, the IC50 (usually the concentration at which inhibition is half-maximal) was found to be 924 nM in [1] and 818 nM in [2]. In addition, the values for the inhibition constant Ki in data set [5], in [6] and in data set [7] were 5850 nM, 9320 nM and 28 nM, respectively. Further, in data set [8] (Day 1), the “time of peak IOP-lowering efficacy after dosing” value is given as 0.5 h.
`O=S(=O)(c1cccc2cnccc12)N1CCCNCC1` [Fasudil, reference compound]: the half-inhibitory concentration (IC50) amounted to 10100 nM in data set [1] and 3940 nM in [2].
With `NC[C@@H](C(=O)Nc1ccc2cnccc2c1)c1ccc(CO)cc1` [Netarsudil-M1], in data set [9], the NET inhibitory activity result is recorded as “does not inhibit NET”. For the same compound, the “fold greater activity than netarsudil for disruption of actin stress fibers and focal adhesions” value in data set [1] (PTM and HTM cell-based assays) is ~5 fold. Besides, the IC50 in [1] came to 22 nM; in [2], 3 nM. Moreover, the Ki (in general, a measure of affinity in units of concentration, obtained from inhibition or displacement) in data set [5] was 13700 nM; in data set [6], 27 nM; in data set [7] it was 7 nM. Also, the “fold greater activity against Rho kinase than netarsudil” value on ROCK1 turned out to be 5 fold. The “increase in outflow facility relative to control eyes” value in the data set on human donor eyes is listed as 59.7%. The “increase in outflow facility” value with mouse eyes (C57 mice) is given as 56%; with mouse eyes (CD1 mice), 91%.
